{"source": "patent EP4667463A1", "about": "“DOMIDE MOLECULAR GLUE DERIVATIVE AND USE THEREOF” (CSPC Megalith Biopharmaceutical Co., Ltd., priority 2023, dated 2024)", "key": {"[1]": {"assay": "Metabolic stability in liver microsomes", "conditions": "Monkey liver microsomes, after 60 min of incubation", "quoted_text": "(§2) The final concentration of the substrate in the incubation system was 1 µM, and the incubation time was 60 min. Sampling was performed at 0 min, 5 min, 15 min, 30 min, and 60 min. The reaction was stopped with glacial acetonitrile containing an internal standard (testosterone-d3 at a concentration of 10 ng/mL). Verapamil was used as a positive control. […] The natural logarithm of the remaining percentage was subjected to linear fitting with time to determine the elimination rate constant (k)."}, "[2]": {"assay": "in vitro", "conditions": "monkey, liver microsomes", "quoted_text": "as §2"}, "[3]": {"assay": "Metabolic stability in liver microsomes", "conditions": "Rat liver microsomes, after 60 min of incubation"}, "[4]": {"target": "T1, GSPT1 protein (Homo sapiens, UniProt P15170+Q96SW2)", "T1 construct": "An HiBiT protein tag was added to the N-terminus of the endogenous GSPT1 protein of HEK293T cells by CRISPR gene editing technology; endogenous in cells; host or cells: HEK293T (CRISPR knock-in HiBiT-GSPT1 cell strain)", "T1 sequence (P15170 whole entry)": "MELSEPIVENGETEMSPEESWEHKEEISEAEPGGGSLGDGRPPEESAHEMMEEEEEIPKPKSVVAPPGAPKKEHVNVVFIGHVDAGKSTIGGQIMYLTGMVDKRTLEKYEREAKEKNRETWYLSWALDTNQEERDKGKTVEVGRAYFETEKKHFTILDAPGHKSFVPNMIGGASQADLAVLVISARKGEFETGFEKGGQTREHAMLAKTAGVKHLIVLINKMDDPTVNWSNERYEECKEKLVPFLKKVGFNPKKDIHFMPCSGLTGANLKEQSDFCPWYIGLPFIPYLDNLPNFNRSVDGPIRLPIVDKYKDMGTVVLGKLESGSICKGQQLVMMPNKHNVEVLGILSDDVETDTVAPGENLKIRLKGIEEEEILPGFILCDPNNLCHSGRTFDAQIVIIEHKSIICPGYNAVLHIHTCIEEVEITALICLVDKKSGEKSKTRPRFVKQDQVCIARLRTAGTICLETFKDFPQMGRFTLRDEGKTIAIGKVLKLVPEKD", "T1 sequence (Q96SW2 whole entry)": "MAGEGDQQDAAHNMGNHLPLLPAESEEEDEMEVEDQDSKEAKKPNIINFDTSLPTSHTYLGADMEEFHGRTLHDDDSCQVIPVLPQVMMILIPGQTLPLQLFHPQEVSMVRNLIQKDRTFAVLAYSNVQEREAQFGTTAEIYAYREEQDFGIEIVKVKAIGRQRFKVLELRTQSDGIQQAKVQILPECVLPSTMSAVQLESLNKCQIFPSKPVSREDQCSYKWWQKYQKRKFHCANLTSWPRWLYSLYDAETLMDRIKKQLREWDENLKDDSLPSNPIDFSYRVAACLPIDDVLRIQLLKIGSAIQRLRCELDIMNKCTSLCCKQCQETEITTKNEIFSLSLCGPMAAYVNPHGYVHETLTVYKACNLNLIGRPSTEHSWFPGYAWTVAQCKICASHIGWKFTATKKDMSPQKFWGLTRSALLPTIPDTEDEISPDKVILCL", "T1 sequence (Q16531 whole entry partner)": "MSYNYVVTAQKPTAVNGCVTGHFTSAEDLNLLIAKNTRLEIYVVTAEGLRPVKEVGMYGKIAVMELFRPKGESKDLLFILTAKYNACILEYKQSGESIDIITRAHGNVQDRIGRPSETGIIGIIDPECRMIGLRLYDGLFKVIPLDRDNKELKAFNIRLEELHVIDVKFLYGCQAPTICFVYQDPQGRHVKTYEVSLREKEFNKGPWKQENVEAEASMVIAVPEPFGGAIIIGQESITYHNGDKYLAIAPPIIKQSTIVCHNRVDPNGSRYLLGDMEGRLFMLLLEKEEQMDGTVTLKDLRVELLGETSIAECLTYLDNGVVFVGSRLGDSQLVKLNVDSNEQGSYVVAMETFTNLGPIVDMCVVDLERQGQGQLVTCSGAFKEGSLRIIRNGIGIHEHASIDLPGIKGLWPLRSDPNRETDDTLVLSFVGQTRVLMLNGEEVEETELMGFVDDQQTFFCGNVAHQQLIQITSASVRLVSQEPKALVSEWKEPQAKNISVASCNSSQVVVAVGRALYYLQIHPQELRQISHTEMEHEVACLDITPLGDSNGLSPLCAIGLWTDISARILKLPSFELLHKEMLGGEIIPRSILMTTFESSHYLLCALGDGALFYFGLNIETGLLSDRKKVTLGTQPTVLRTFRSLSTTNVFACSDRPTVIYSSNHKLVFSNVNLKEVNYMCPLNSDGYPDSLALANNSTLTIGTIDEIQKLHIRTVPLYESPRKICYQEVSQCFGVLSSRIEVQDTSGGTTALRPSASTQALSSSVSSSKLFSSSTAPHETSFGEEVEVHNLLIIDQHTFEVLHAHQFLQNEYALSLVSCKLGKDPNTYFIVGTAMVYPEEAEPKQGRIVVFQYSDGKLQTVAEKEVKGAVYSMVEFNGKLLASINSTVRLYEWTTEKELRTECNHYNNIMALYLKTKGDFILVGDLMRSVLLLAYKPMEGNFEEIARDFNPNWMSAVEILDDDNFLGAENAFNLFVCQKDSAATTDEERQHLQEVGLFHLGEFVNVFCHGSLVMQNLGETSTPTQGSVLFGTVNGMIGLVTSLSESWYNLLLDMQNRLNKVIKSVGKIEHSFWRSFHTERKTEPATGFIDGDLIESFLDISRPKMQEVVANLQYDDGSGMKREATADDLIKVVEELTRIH", "assay": "GSPT1 protein degradation, Nano-Glo HiBiT assay in HiBiT-GSPT1 HEK293T cells", "format": "cell-based", "conditions": "24 h", "description": "This experiment was performed to evaluate the targeting property of the compounds. An HiBiT protein tag was added to the N-terminus of the endogenous GSPT1 protein of HEK293T cells by CRISPR gene editing technology, so as to construct a HiBiT-GSPT1 HEK293T stably transfected cell strain. HiBiT-GSPT1 HEK293T cells were cultured in DMEM containing 10% FBS and 1% PenStrep. When the cell confluency reached 80%-90%, the cells were digested with trypsin, pipetted into single cells, and resuspended in a corresponding culture medium to form a cell suspension. The cells were counted using Cell Countess (NanoEnTek, #Cat. EVE-MC2), and the cell viability was determined by trypan blue exclusion to ensure that the cell viability was above 90%. The cells were plated in a 384-well plate (Corning, #Cat. 3764) at 10,000 cells/40 µL of cell suspension per well, and cultured in an incubator at 37 °C with 5% CO2 overnight. The next day, the test compounds were added to the 384-well plate under conditions of 30 µM highest concentration, 5-fold serial dilution, and 1‰ DMSO. The plate was incubated in the incubator at 37 °C with 5% CO2 for another 24 h. Before measurement, the Nano-Glo HiBiT reagent was equilibrated to room temperature, the LgBiT protein was diluted with the Nano-Glo HiBiT Lytic buffer according to a dilution ratio of 1:100, and the Nano-Glo@HiBiT Lytic substrate was diluted to an appropriate volume according to a ratio of 1:50. After the cell culture plate was equilibrated at room temperature for 10 min, 40 µL of Nano-Glo HiBiT Lytic assay reagent was added to each well. The plate was shaken on a microplate shaker at a rotation speed of 300 rpm for 3 min in the dark. After the reaction was completed, the luminescencevalues were read on BMG PHERASTAR FS (BMG LRBTECH, Cat. No.: PHERAstar FSX), and the DC50 values were calculated using GraphPad Prism 8.0. Table 2. GSPT1 protein degradation"}, "[5]": {"assay": "in vitro", "conditions": "rat, liver microsomes", "quoted_text": "as §2"}, "[6]": {"assay": "Metabolic stability in liver microsomes", "conditions": "Mouse liver microsomes, after 60 min of incubation", "quoted_text": "as §2"}, "[7]": {"assay": "Metabolic stability in liver microsomes", "conditions": "Human liver microsomes, after 60 min of incubation", "quoted_text": "as §2"}, "[8]": {"assay": "Metabolic stability in liver microsomes", "conditions": "Dog liver microsomes, after 60 min of incubation", "quoted_text": "as §2"}, "[9]": {"tested_on": "HCT-15", "assay": "Activity in cell strains with high expression of efflux pump proteins, cell viability assay", "format": "cell-based", "conditions": "Homo sapiens, HCT-15 cells, 96 h", "description": "(§1) Three types of cells used for evaluating the activity of the compounds of the present disclosure against a cell strain with high expression of efflux pump proteins were all purchased from Nanjing Cobioer Biosciences Co., Ltd., and all the cells were derived from ATCC (American Type Culture Collection). Various tumor cells were cultured until the cell confluency reached 80%-90%, with cell viability above 90% as determined by trypan blue exclusion. Then, the cells were plated. Specifically, after cell density optimization, 75 µL of each of three cell suspensions of SNU-5, HCT-15, and AsPc-1 cells (3000 cells/well) was inoculated into a BeyoGold™ ultra-low attachment black clear-bottom 96-well plate (Cat. No.: FULA965-24pcs), and the plate was incubated overnight in a cell incubator at 37 °C with carbon dioxide. The next day, after the cells adhered to the wall, 75 µL of the compounds diluted with the corresponding culture media were added. Specifically, the compounds were serially diluted at a 5-fold gradient starting from the highest concentration of 1 µM, with a final DMSO concentration of 1‰, and the test compounds were then added to the cell culture plate. The plate was incubated in an incubator at 37 °C with 5% carbon dioxide for 96 h. Before measurement, the CellTiter-Lumi™ luminescent cell viability assay reagent was equilibrated to room temperature in the dark. Then, 50 µL of the CellTiter-Lumi™ (Cat. No.: C0065XL) cell viability assay reagent was added to each well of the 96-well plate. The plate was shaken in the dark on a shaker at 300 rpm for 10 min to ensure complete cell lysis. After the reaction was completed, the chemiluminescence intensity was measured on a multi-mode microplate reader. The cell viability inhibition rate was determined according to the chemiluminescence intensity. Then, a cell viability curve was generated by Graphpad Prism 8.0, and the IC50 values were calculated. Table 3. Activity of the compounds of the present disclosure in cell strains with high expression of efflux pump proteins (IC50 value)"}, "[10]": {"tested_on": "SNU-5", "assay": "Activity in cell strains with high expression of efflux pump proteins, cell viability assay", "format": "cell-based", "conditions": "Homo sapiens, SNU-5 cells, 96 h", "description": "as §1"}, "[11]": {"tested_on": "AsPc-1", "assay": "Activity in cell strains with high expression of efflux pump proteins, cell viability assay", "format": "cell-based", "conditions": "Homo sapiens, ASPC1, AsPc-1 cells, 96 h", "description": "as §1"}, "[12]": {"assay": "in vitro", "conditions": "human, liver microsomes", "quoted_text": "as §2"}}}
{"smiles": "O=C1CCC(N2Cc3cc(CNC(=O)Nc4ccc(CCCOC5CCCNC5)c(Cl)c4)ccc3C2=O)C(=O)N1", "note": "(stereo not drawn) [Compound B19]", "values": [{"measurement": "Parent drug remaining %", "setting": "[1]", "result": 77.7, "unit": "%"}, {"measurement": "CLint scaled at 1 µM", "setting": "[2]", "result": 11.3, "unit": "mL/min/kg"}, {"measurement": "half-life at 1 µM", "setting": "[2]", "result": 3, "unit": "h"}, {"measurement": "Parent drug remaining %", "setting": "[3]", "result": 88.1, "unit": "%"}, {"measurement": "DC50", "setting": "[4]", "result": 66.2, "unit": "nM"}, {"measurement": "CLint scaled at 1 µM", "setting": "[5]", "result": 6.55, "unit": "mL/min/kg"}, {"measurement": "half-life at 1 µM", "setting": "[5]", "result": 6.32, "unit": "h"}, {"measurement": "Parent drug remaining %", "setting": "[6]", "result": 92.8, "unit": "%"}, {"measurement": "Parent drug remaining %", "setting": "[7]", "result": 80.5, "unit": "%"}, {"measurement": "Parent drug remaining %", "setting": "[8]", "result": 118, "unit": "%"}, {"measurement": "IC50", "setting": "[9]", "result": "200 to 1000", "unit": "nM"}, {"measurement": "IC50", "setting": "[10]", "result": "< 50", "unit": "nM"}, {"measurement": "IC50", "setting": "[11]", "result": "50 to 200", "unit": "nM"}, {"measurement": "CLint scaled at 1 µM", "setting": "[12]", "result": 5.8, "unit": "mL/min/kg"}, {"measurement": "half-life at 1 µM", "setting": "[12]", "result": 5, "unit": "h"}]}
